# Assay results taken from US11542298B2, “Hydroxysteroid compounds, their intermediates, process of preparation, composition and uses thereof” (Epirium Bio Inc., priority 2014, dated 2023).
# Several values for one entry are separate records, joined by “and”; a condition that tells them apart may be missing. Equal entries are not always repeated.
# Test system: AMP KINASE
# Assay: AMP KINASE phosphorylation, cell-based fluorescent ELISA (BioAssay Systems)
# Protocol: The compounds of the present invention were tested for their activity on AMP KINASE. The activity on AMP KINASE was evaluated by quantitative fluorescent immunoenzymatic assay of AMP KINASE phosphorylation status in cultured cells. The 5-AMP-activated protein kinase (AMP KINASE) is a key sensor of intracellular energy balance. AMP KINASE is activated in response to an increase in the AMP/ATP ratio which can be caused by a number of factors such as muscle contraction, starvation, or hypoxia. AMP KINASE is a heterotrimeric protein complex comprising of α—(63 kDa), β—(38 kDa) and γ—(38 kDa) subunits. For each subunit, isoforms have been identified (α1, α2, β1, β2, γ1, γ2, γ3) which theoretically allow the formation of 12 different proteins. The α-subunit contains a serine/threonine kinase domain and the regulatory subunits contain binding sites for AMP and ATP (γ-subunit) and for glycogen (β-subunit). AMP KINASE is activated by phosphorylation on Thr-172 within the catalytic domain. AMP binding results in a 2 to 5-fold increase in AMP KINASE activity compared to the basal level. Binding of AMP to the γ-subunit causes allosteric activation of the kinase and induces a conformational change in the kinase domain that protects AMP KINASE from dephosphorylation of Thr-172.
# BioAssay Systems' cell-based ELISA measure phosphorylated AMP KINASE in whole cells and normalizes the signal to the total protein content. The antibody recognizes both α-subunits and, thus, can be used for cells from all tissues (human, mouse, rat). This simple and efficient assay eliminates the need for cell lysate preparation and can be used to study AMP KINASE regulation in short-term and long-term assays. In this assay, cells grown in 96-well plates are fixed and permeabilized in the wells. AMP KINASE phosphorylation (pAMPK) is measured using a fluorescent ELISA followed by total protein measurement in each well.
# A few illustrative compounds of the present invention were tested at 10 nM and the AMPkinase activation of the compounds is listed at Table 2: […]
row,SMILES,AMPKinase Activation at 10 nM
1,"C[C@]12CCC(=O)NC1=CCC1C2[C@@H](O)C[C@]2(C)C(=O)CCC12 (stereo partly drawn) [Compound 1005, (4aR,5S,6aS)5-hydroxy-4a,6a-dimethyl-4,4a,4b,5,6,6a,9,9a,9b,- 10-decahydro-1H-indeno[5,4-f]-quinoline-2,7(3H,8H)-dione]",1.85
2,"CC(=O)C1CCC2C3CC=C4NC(=O)CC[C@]4(C)C3[C@@](C)(O)C[C@]12C (stereo partly drawn) [Compound 1008, (4aR,5S,6aS)-7-acetyl-4,4a,4b,5,- 6,6a,7,8,9,9a,9b,10-dodecahydro-5-hydroxy-4a,5,6a-trimethyl-1H-indeno[5,4-f]quinolin-2(3H)-one]",1.97
3,"C[C@]12C=CC(=O)C=C1CCC1C2[C@@H](O)C[C@@]2(C)C1CC[C@@H]2C(=O)O (stereo partly drawn) [Compound 1013, (10R,11S,13S,17S)-11-hydroxy-10,13-dimethyl-3-oxo-6,7,8,9,- 10,11,12,13,14,15,16,17-dodeca-hydro-3H-cyclopenta[a]-phenan-threne-17-carboxylic acid]",1.79
4,"CN(C)C(=O)[C@H]1CCC2C3CCC4=CC(=O)C=C[C@]4(C)C3[C@@H](O)C[C@@]21C (stereo partly drawn) [Compound 1014, (10R,11S,13S,17S)-11-hydroxy-N,N,10,13-tetramethyl-3-oxo-6,7,8,9,10,11,12,13,14,15,16,17-dodecahydro-3H-cyclopenta[a]-phenanthrene-17-carboxamide]",1.80
5,"CC(=O)[C@H]1CCC2C3CCC4=CC(=O)C=C[C@]4(C)C3[C@@H](O)C[C@@]21C (stereo partly drawn) [Compound 1015, (10R,11S,13S,17S)-17-acetyl-11-hydroxy-10,13-dimethyl-6,7,8,9,- 10,11,12,13,14,13,16,17-dodeca-hydro-3H-cyclopenta[a]-phenan-thren-3-one]",2.23
6,"CC(O)[C@H]1CCC2C3CCC4=CC(=O)C=C[C@]4(C)C3[C@@H](O)C[C@@]21C (stereo partly drawn) [Compound 1016, (10R,11S,13S,17S)-11-hydroxy-17-((R)-1-hydroxyethyl)-10,13-dimethyl-6,7,8,9,10,11,12,13,- 14,15,16,17-dodecahydro-3H-cyclopenta[a]phenanthren-3-one]",2.38
7,"C[C@]12CCC(=O)NC1=CCC1C2[C@@H](O)C[C@@]2(C)C1CCC21OCCO1 (stereo partly drawn) [Compound 1017, (4a′R,5′S,6a′S)-5′-hydroxy-4a′,6a′-dimethyl-3′,4′,4a′,4b′,5′,6′,6a′,8′,- 9′,9a′,9b′,10′-dodecahydrospiro-[[1,3]dioxolane-2,7′-indeno[5,4-f]-quinolin]-2′(1′H)-one]",2.08
8,"C[C@]12CCC(=O)NC1=CCC1C2[C@](C)(O)C[C@]2(C)C(=O)CCC12 (stereo partly drawn) [Compound 1018, (4aR,5R,6aS)-5-hydroxy-4a,5,6a-trimethyl-4,4a,4b,5,6,6a,9,9a,9b,- 10-decahydro-1H-indeno[5,4-f]-quinoline-2,7(3H,8H)-dione]",2.19
9,"C[C@]12C[C@H](O)C3C(CC=C4NC(=O)CC[C@@]43C)C1CCC2O (stereo partly drawn) [Compound 1019, (4aR,5S,6aS)-5,7-dihydroxy-4a,6a-dimethyl-4,4a,4b,5,6,6a,- 7,8,9,9a,9b,10-dodecahydro-1H-indeno[5,4-f]quinolin-2(3H)-one]",2.23
10,"C[C@]12CCC(=O)NC1=CCC1C2[C@@H](O)C[C@]2(C)/C(=N\O)CCC12 (stereo partly drawn) [Compound 1021, (4aR,5S,6aS,Z)-5-hydroxy-7-(hydroxyimino)-4a,6a-dimethyl-4,4a,4b,5,6,6a,7,8,9,9a,9b,10-dodecahydro-1H-indeno[5,4-f]-quinolin-2(3H)-one]",2.23
11,"CN1C(=O)CC[C@@]2(C)C1=CCC1C3CCC(O)[C@@]3(C)C[C@H](O)C12 (stereo partly drawn) [Compound 1022, (4aR,5S,6aS)-5,7-dihydroxy-1,4a,6a-trimethyl-4,4a,4b,5,6,6a,- 7,8,9,9a,9b,10-dodecahydro-1H-indeno[5,4-f]quinolin-2(3H)-one]",2.87
12,"C[C@]12CCC(=O)NC1CCC1C3CCC(O)[C@@]3(C)C[C@H](O)C12 (stereo partly drawn) [Compound 1023, (4aR,5S,6aS)-5,7-dihydroxy-4a,6a-dimethyltetradecahydro-1H-indeno[5,4-f]quinolin-2(3H)-one]",2.46
13,"CC1([C@H]2CCC3C4CC=C5NC(=O)CC[C@]5(C)C4[C@@H](O)C[C@@]32C)OCCO1 (stereo partly drawn) [Compound 1025, (4aR,5S,6aS,7S)-5-hydroxy-4a,6a-dimethyl-7-(2-methyl-1,3-dioxolan-2-yl)-4,4a,4b,5,6,6a,- 7,8,9,9a,9b,10-dodecahydro-1H-indeno[5,4-f]quinolin-2(3H)-one]",2.11
14,"CC1([C@H]2CCC3C4CC=C5NC(=O)CC[C@]5(C)C4[C@@](C)(O)C[C@@]32C)OCCO1 (stereo partly drawn) [Compound 1026, (4aR,5S,6aS,7S)-5-hydxoxy-4a,5,6a-trimethyl-7-(2-methyl-1,3-dioxolan-2-yl)-4,4a,4b,5,6,6a,- 7,8,9,9a,9b,10-dodecahydro-1H-indeno[5,4-f]quinolin-2(3H)-one]",1.69 and 2.17
15,"C[C@]12CCC(=O)NC1=CCC1C2[C@@H](O)C[C@@]2(C)C1CC[C@@H]2C(=O)O (stereo partly drawn) [Compound 1027, (4aR,5S,6aS,7S)-5-hydroxy-4a,6a-dimethyl-2-oxo-2,3,4,4a,4b,5,6,- 6a,7,8,9,9a,9b,10-tetradecahydro-1H-indeno[5,4-f]quinoline-7-carboxylic acid]",1.85
16,"COc1ccc2c(c1)CCC1C2[C@@H](O)C[C@]2(C)C(C(C)O)CCC12 (stereo partly drawn) [Compound 1030, (11S,13S)-17-(1-hydroxyethyl)-3-methoxy-13-methyl-7,8,9,11,12,- 13,14,15,16,17-decahydro-6H-cyclopenta[a]phenanthren-11-ol]",1.51
17,"Cc1ccc(O)c2c1C1C(CC2)C2CC[C@H](C(=O)O)[C@@]2(C)C[C@@H]1O (stereo partly drawn) [Compound 1035, (11S,13S,17S)-4,11-dihydroxy-1,13-diinethyl-7,8,9,11,12,13,- 14,15,16,17-decahydro-6H-cyclopenta[a]phenanthrene-17-carboxylic acid]",1.76
18,"CC(C)(O)[C@H]1CCC2C3CC=C4NC(=O)CC[C@]4(C)C3[C@@H](O)C[C@@]21C (stereo partly drawn) [Compound 1038, (4aR,5S,6aS,7S)-5-hydroxy-7-(2-hydroxypropan-2-yl)-4a,6a-dimethyl-4,4a,4b,5,6,6a,7,8,9,- 9a,9b,10-dodecahydro-1H-indeno-[5,4-f]quinolin-2(3H)-one]",1.70
